According to patent US20040074272A1, “Controlled release urea product and method of preparing said product” (priority 2001, published 2004):

Experiments:
[1] = in vitro solubility assay of urea in water at 39° C.; assay type: physicochemical; settings: 50 mg urea in 50 ml water at 39° C.
Method: The coating layers consisted of rosin only or a combination of primer and rosin. […] Fifty mg urea was incubated in 50 ml water at 39° C. Samples (1 ml) were taken after 1, 2, 4 and 7.5 h incubation. Urea concentration was estimated by spectrophotometry.

[2] = feeding trial in sheep fitted with rumen cannulae, rumen ammonia profile; assay type: in vivo
Method: Samples consisted of prilled urea-cement matrix coated with a primer of the type oxychloride cement followed by 3 or 4 layers of rosin and calcium carbonate.
The experiment was carried out with sheep fitted with rumen cannulae. Sheep were fed on a control diet of 63% grass hay and 37% of unmollassed sugarbeet pulp. Control diet was then supplemented with 1.3% urea (or urea equivalent in the is form of a controlled-release product) and added directly into the rumen to avoid excess chewing, which is known to be more intense in sheep compared to cattle. Data from the feeding trials are described in Table 4 and FIG. 3.

Urea solubilized (%) ([1]; incubation time 1 h): 98.9%
Urea solubilized (%) ([1]; incubation time 2 h): 100.1%
Urea solubilized (%) ([1]; incubation time 4 h): 99.3%
Urea solubilized (%) ([1]; incubation time 7.5 h): 100.6%
Structure (SMILES): NC(N)=O [Urea, urea]
Rumen ammonia ([2]; 0 h after feeding, diet supplemented with 1.3% urea or urea equivalent, added directly into the rumen): 8.8 mg N/100 ml
Rumen ammonia ([2]; 1 h after feeding, 1.3% urea or urea equivalent into the rumen): 33.3 mg N/100 ml
Rumen ammonia ([2]; 2 h after feeding, 1.3% urea or urea equivalent into the rumen): 25.0 mg N/100 ml
Rumen ammonia ([2]; 4 h after feeding, 1.3% urea or urea equivalent into the rumen): 10.7 mg N/100 ml
Rumen ammonia ([2]; 8 h after feeding, 1.3% urea or urea equivalent into the rumen): 6.6 mg N/100 ml
Rumen ammonia ([2]; 12 h after feeding, 1.3% urea or urea equivalent into the rumen): 9.0 mg N/100 ml
